# Source: publication PMC12186298, “Phase 1 clinical trial of eneboparatide, a novel PTH receptor 1 agonist” (Endocrine Connections, 2025)
# Peptide text beside a SMILES is read from it.
# Experiments:
# healthy subjects [1] = assay: Antidrug antibodies (ADA) in plasma, Part B; type: in vivo, human; details: following 14 days of administration
# Method: Safety and tolerability assessments consisted of adverse events (AEs), clinical laboratory (clinical chemistry, haematology, coagulation, and urinalysis), vital signs (blood pressure, pulse rate, respiratory rate, and temperature), 12-lead ECG (Part B), 24 h continuous cardiac monitoring (telemetry; Part A), body weight, physical examination, injection site reaction, and measurement of antidrug antibodies (ADA) in plasma (Part B).
# healthy subjects [2] = assay: Pharmacodynamics (serum calcium, phosphorus, endogenous PTH, urine), Part A SAD; type: in vivo, human
# Method: (§1) Seven sequential cohorts were included in Part A. The first cohort was single-blind and included four subjects, of which three subjects were randomized to receive 5 μg eneboparatide and one subject was randomized to receive placebo. […] Subjects in Part A were admitted to the phase 1 study centre on day 1 and received the study drug at the clinical site on day 1 as a single, subcutaneous abdominal injection in the morning. They were discharged on day 4 and were asked to return for a follow-up (FU) visit on day 5–8.
# Blood samples were taken on day 1 at pre-dose, at several time points post-dose up to day 4 and at FU (Part A), on day 1–14 (pre-dose), and day 15–17 and at FU (Part B) for the analysis of total sCa, albumin-adjusted serum calcium (ADsCa), and sPh. These parameters were also measured on day 1, 7 and 14 at several time points post-dose. Samples for serum creatinine were taken at predefined time points to allow for calculation of fractional excretion of calcium (FECa). Endogenous serum PTH(1–84) was measured on day 1 (pre-dose and 12 h post-dose), day 2–4 and at FU (Part A), on pre-dose on day 1, 7, and 14 and on day 15–17 and FU (Part B). In Part B, additional blood samples were taken on day 1, day 14 and at FU for the analysis of serum bone turnover biomarkers, including carboxy-terminal telopeptide of type I collagen (s-CTx), and procollagen type 1 amino-terminal propeptide (P1NP).
# Urine collection was performed over 24 h for the analysis of calcium and creatinine on day 1–3 and at FU (Part A) and day 1, day 7, day 14 and at FU (Part B). FECa (%) was calculated by the formula: FECa = (urine calcium/serum calcium)/(urine creatinine/serum creatinine).
# [3] = Plasma pharmacokinetics, multiple ascending dose (Part B); type: in vivo, human; details: for AUC(0–∞) / Cmax / Tmax / AUC(0-inf): Part B MAD; for Cmax: LC-MS/MS, mean ± SD
# Method: (§2) Plasma samples were collected pre-dose and at scheduled time points up to 6 h post-dose on day 1 (Parts A and B) and day 14 (Part B). The analysis of eneboparatide in plasma samples was performed at QPS (The Netherlands) using a hybrid immunoaffinity liquid chromatography–mass spectrometry/mass spectrometry (LC-MS/MS) method, with a validated lower limit of quantification (LLOQ) of 50 pg/mL.
# patients with cHP = system: patients with cHP; parameters: method as in PMID 38449442; details: 3 months; cited from earlier work
# [4] = Plasma pharmacokinetics, single ascending dose (Part A); type: in vivo, human; details: for AUC(0–∞) / Cmax / Tmax: Part A SAD; for Cmax: immunoaffinity LC-MS/MS, mean ± SD
# Method: as §1, §2
smiles,measurement,setting,value
CC[C@H](C)[C@H](NC(=O)[C@H](CCC(=O)O)NC(=O)[C@H](C)NC(=O)[C@@H](NC(=O)[C@H](Cc1c[nH]cn1)NC(=O)[C@@H](NC(=O)[C@H](CCC(=O)O)NC(=O)[C@H](C)NC(=O)[C@@H](NC(=O)[C@H](CC(C)C)NC(=O)[C@H](CCCCN)NC(=O)[C@H](Cc1c[nH]cn1)NC(=O)[C@H](CC(C)C)NC(=O)[C@H](Cc1ccccc1)NC(=O)[C@H](C)NC(=O)[C@H](CCCNC(=N)N)NC(=O)[C@H](CCCNC(=N)N)NC(=O)[C@H](CCCNC(=N)N)NC(=O)[C@H](C)NC(=O)[C@H](CC(=O)O)NC(=O)[C@H](CCC(N)=O)NC(=O)[C@@H](NC(=O)[C@H](Cc1c[nH]c2ccccc12)NC(=O)[C@H](CCCCN)NC(=O)[C@H](C)NC(=O)[C@H](CCCNC(=N)N)NC(=O)[C@H](CCC(N)=O)NC(=O)[C@H](Cc1c[nH]cn1)NC(=O)[C@H](CCSC)NC(=O)[C@H](CC(C)C)NC(=O)[C@H](CCC(N)=O)NC(=O)[C@@H](NC(=O)[C@H](CCC(=O)O)NC(=O)[C@H](C)NC(=O)[C@@H](NC(=O)[C@H](C)N)C(C)C)[C@@H](C)CC)[C@@H](C)CC)[C@@H](C)CC)[C@@H](C)CC)[C@@H](C)O)C(=O)O [eneboparatide] (H-AVAEIQLMHQRAKWIQDARRRAFLHKLIAEIHTAEI-OH; N-terminus and C-terminus assumed),anti-eneboparatide antibodies,healthy subjects [1],no anti-eneboparatide antibodies detected
same,urinary excretion of calcium or phosphorus,healthy subjects [2]; increasing single doses,no apparent dose-related changes
same,duration of elevation of ADsCa post-dose vs placebo,"healthy subjects [2]; single sc 20 μg, moderate but persistent elevation",up to 18 h
same,effect on physiological decline in ADsCa,healthy subjects [2]; single sc 5 and 10 μg,blunted this physiological decline in ADsCa during the first 6 h post-dosing
same,persistence of dose-dependent decrease of endogenous sPTH(1–84),healthy subjects [2]; single sc 20–120 μg,24 to 72 h
same,AUC(0–∞),"[3]; 10 μg/day sc, Day 1, n = 4, mean ± SD",3.26 ± 3.20 ng·h/mL
same,Cmax,"[3]; 10 μg/day sc, Day 1, n = 4, plasma",20.6 ± 3.43 ng/mL
same,Cmax,"[3]; 10 μg/day sc, Day 14, n = 4, plasma",18.4 ± 5.37 ng/mL
same,AUC(0–∞),"[3]; 20 μg/day sc, Day 1, n = 8, mean ± SD",7.69 ± 5.52 ng·h/mL
same,Cmax,"[3]; 20 μg/day sc, Day 1, n = 8, plasma",19.6 ± 5.68 ng/mL
same,AUC(0–∞),"[3]; 40 μg/day sc, Day 1, n = 8, mean ± SD",15.8 ± 11.5 ng·h/mL
same,Cmax,"[3]; 40 μg/day sc, Day 1, n = 8, plasma",23.8 ± 8.97 ng/mL
same,Tmax,"[3]; 40 μg/day sc, Day 14, n = 8, median",10.2 min
same,AUC(0–∞),"[3]; 60 μg/day sc, Day 1, n = 8, mean ± SD",43.3 ± 18.1 ng·h/mL
same,Cmax,"[3]; 60 μg/day sc, Day 1, n = 8, plasma",42.9 ± 30.3 ng/mL
same,Tmax,"[3]; 60 μg/day sc, Day 14, n = 7, median",19.8 min
same,AUC(0–∞),"[3]; 80 μg/day sc, Day 1, n = 8, mean ± SD",64.2 ± 56.1 ng·h/mL
same,Cmax,"[3]; 80 μg/day sc, Day 1, n = 8, plasma",124 ± 105 ng/mL
same,accumulation in plasma,"[3]; after 14 consecutive daily administrations, day 14 vs day 1",absence of accumulation
same,Tmax,"[3]; human, plasma, sc, 10 μg/day, 10 μg/day sc, Day 1, n = 4, median, read-out: Tmax",19.8 min
same,Tmax,"[3]; human, plasma, sc, 10 μg/day, 10 μg/day sc, Day 14, n = 4, median, read-out: Tmax",5.4 min
same,Tmax,"[3]; human, plasma, sc, 20 μg/day, 20 μg/day sc, Day 1, n = 8, median, read-out: Tmax",7.8 min
same,Tmax,"[3]; human, plasma, sc, 20 μg/day, 20 μg/day sc, Day 14, n = 7, median, read-out: Tmax",10.2 min
same,Tmax,"[3]; human, plasma, sc, 40 μg/day, 40 μg/day sc, Day 1, n = 8, median, read-out: Tmax",10.2 min
same,Tmax,"[3]; human, plasma, sc, 60 μg/day, 60 μg/day sc, Day 1, n = 8, median, read-out: Tmax",19.8 min
same,Tmax,"[3]; human, plasma, sc, 80 μg/day, 80 μg/day sc, Day 1, n = 8, median, read-out: Tmax",10.2 min
same,Tmax,"[3]; human, plasma, sc, 80 μg/day, 80 μg/day sc, Day 14, n = 8, median, read-out: Tmax",10.8 min
same,AUC(0-inf),"[3]; human, plasma, 10 μg/day sc, Day 14, n = 4, mean ± SD",2.02 ± 2.41 ng·h/mL
same,AUC(0-inf),"[3]; human, plasma, 20 μg/day sc, Day 14, n = 7, mean ± SD",4.63 ± 3.29 ng·h/mL
same,AUC(0-inf),"[3]; human, plasma, 40 μg/day sc, Day 14, n = 8, mean ± SD",12.5 ± 4.75 ng·h/mL
same,AUC(0-inf),"[3]; human, plasma, 60 μg/day sc, Day 14, n = 7, mean ± SD",58.8 ± 30.3 ng·h/mL
same,AUC(0-inf),"[3]; human, plasma, 80 μg/day sc, Day 14, n = 8, mean ± SD",51.9 ± 51.6 ng·h/mL
same,Cmax,"[3]; human, 20 μg/day sc, Day 14, n = 7, plasma, read-out: Cmax",18.3 ± 6.78 ng/mL
same,Cmax,"[3]; human, 40 μg/day sc, Day 14, n = 8, plasma, read-out: Cmax",23.6 ± 5.5 ng/mL
same,Cmax,"[3]; human, 60 μg/day sc, Day 14, n = 7, plasma, read-out: Cmax",44.9 ± 17.9 ng/mL
same,Cmax,"[3]; human, 80 μg/day sc, Day 14, n = 8, plasma, read-out: Cmax",63.5 ± 28.3 ng/mL
same,tolerability and independence from conventional therapy,patients with cHP,well-tolerated and allowed independence from conventional therapy
same,AUC(0–∞),"[4]; single sc 5 μg, n = 2, mean ± SD",0.399 ± 0.032 ng·h/mL
same,Cmax,"[4]; single sc 5 μg, n = 2, plasma",6.82 ± 2.19 ng/mL
same,AUC(0–∞),"[4]; single sc 10 μg, n = 4, mean ± SD",5.20 ± 3.38 ng·h/mL
same,Cmax,"[4]; single sc 10 μg, n = 4, plasma",11.4 ± 4.32 ng/mL
same,AUC(0–∞),"[4]; single sc 20 μg, n = 6, mean ± SD",9.55 ± 4.12 ng·h/mL
same,Cmax,"[4]; single sc 20 μg, n = 6, plasma",24.1 ± 8.18 ng/mL
same,AUC(0–∞),"[4]; single sc 40 μg, n = 2, mean ± SD",10.4 ± 13.4 (n = 2) ng·h/mL
same,Cmax,"[4]; single sc 40 μg, n = 3, plasma",26.3 ± 4.79 ng/mL
same,AUC(0–∞),"[4]; single sc 60 μg, n = 6, mean ± SD",16.8 ± 14.7 ng·h/mL
same,Cmax,"[4]; single sc 60 μg, n = 6, plasma",28.5 ± 10.8 ng/mL
same,AUC(0–∞),"[4]; single sc 90 μg, n = 6, mean ± SD",31.7 ± 12.5 ng·h/mL
same,Cmax,"[4]; single sc 90 μg, n = 6, plasma",37.5 ± 11.6 ng/mL
same,AUC(0–∞),"[4]; single sc 120 μg, n = 6, mean ± SD",26.1 ± 16.4 ng·h/mL
same,Cmax,"[4]; single sc 120 μg, n = 6, plasma",57.4 ± 28.7 ng/mL
same,median time to maximum plasma concentration,"[4]; Parts A and B, sc, all doses",5 to 20 min
same,detectability of eneboparatide in the circulation after administration,"[4]; SAD, single sc 10 to 120 μg, LLOQ 50 pg/mL",almost undetectable beyond 2 h after administration
same,Tmax,"[4]; human, plasma, 5 ug, single sc 5 μg, n = 2, median",15 min
same,Tmax,"[4]; human, plasma, 10 ug, single sc 10 μg, n = 4, median",13.2 min
same,Tmax,"[4]; human, plasma, 20 ug, single sc 20 μg, n = 6, median",6 min
same,Tmax,"[4]; human, plasma, 40 ug, single sc 40 μg, n = 3, median",4.8 min
same,Tmax,"[4]; human, plasma, 60 ug, single sc 60 μg, n = 6, median",10.2 min
same,Tmax,"[4]; human, plasma, 90 ug, single sc 90 μg, n = 6, median",19.8 min
same,Tmax,"[4]; human, plasma, 120 ug, single sc 120 μg, n = 6, median",19.8 min
same,half-life,"[4]; human, plasma, normal subjects, sc, read-out: circulating half-life",< 120 min
